In ChEMBL document CHEMBL1141655, “Structure-activity relationships of Bak derived peptides: affinity and specificity modulations by amino acid replacement” (Eur J Med Chem, 2008) one finds Ratio EC50 and EC50 data, which are given here for 14 molecules.

Non-standard residues stand in square brackets, D forms with d. Residues, ends and D or L forms follow the SMILES beside them. Phe(4-Cl) = N[C@@H](Cc1ccc(Cl)cc1)C(=O)O; 2Nal = N[C@@H](Cc1ccc2ccccc2c1)C(=O)O

Chain of Bcl-2-like protein 1 (Q07817 whole entry): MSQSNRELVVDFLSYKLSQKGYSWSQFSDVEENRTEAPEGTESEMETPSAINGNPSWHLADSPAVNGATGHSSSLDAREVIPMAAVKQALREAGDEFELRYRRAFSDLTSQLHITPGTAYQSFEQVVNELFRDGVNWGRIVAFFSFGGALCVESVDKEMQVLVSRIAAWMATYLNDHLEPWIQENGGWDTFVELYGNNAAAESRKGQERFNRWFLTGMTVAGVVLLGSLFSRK

Test system in the first test: not listed separately
Kind of test: Selectivity ratio of EC50 for recombinant Bcl-2 to EC50 for recombinant Bcl-XL.
As to `CC[C@H](C)[C@H](NC(=O)[C@H](C)NC(=O)[C@H](CCSC)NC(=O)[C@H](CCC(N)=O)NC(=O)[C@H](CCCNC(=N)N)NC(=O)CNC(=O)[C@@H](NC(=O)[C@H](CCC(N)=O)NC(=O)CN)C(C)C)C(=O)N[C@H](C(=O)NCC(=O)N[C@@H](CC(=O)O)C(=O)N[C@@H](CC(=O)O)C(=O)N[C@H](C(=O)N[C@@H](CC(N)=O)C(=O)N[C@@H](CCCNC(=N)N)C(=O)O)[C@@H](C)CC)[C@@H](C)CC`, the Ratio EC50 was determined as 21.

With `CC[C@H](C)[C@H](NC(=O)[C@H](C)NC(=O)[C@H](CC(C)C)NC(=O)[C@H](CCC(N)=O)NC(=O)[C@H](CCCNC(=N)N)NC(=O)CNC(=O)[C@@H](NC(=O)[C@H](CCC(N)=O)NC(=O)CN)C(C)C)C(=O)N[C@@H](Cc1ccc(-c2ccccc2)cc1)C(=O)NCC(=O)N[C@@H](CC(=O)O)C(=O)N[C@@H](CC(=O)O)C(=O)N[C@H](C(=O)N[C@@H](CC(N)=O)C(=O)N[C@@H](CCCNC(=N)N)C(=O)O)[C@@H](C)CC`, the Ratio EC50 amounted to 17.

In the case of `CCCC[C@H](NC(=O)[C@H](CCC(N)=O)NC(=O)CN)C(=O)NCC(=O)N[C@@H](CCCNC(=N)N)C(=O)N[C@@H](CCC(N)=O)C(=O)N[C@@H](CC(C)C)C(=O)N[C@@H](C)C(=O)N[C@H](C(=O)N[C@H](C(=O)NCC(=O)N[C@@H](CC(=O)O)C(=O)N[C@@H](CC(=O)O)C(=O)N[C@H](C(=O)N[C@@H](CC(N)=O)C(=O)N[C@@H](CCCNC(=N)N)C(=O)O)[C@@H](C)CC)[C@@H](C)CC)[C@@H](C)CC`, the Ratio EC50 came to 11.

Another test concerns the target Bcl-2-like protein 1 (Homo sapiens, UniProt Q07817). The test can be described thus: Binding affinity to recombinant Bcl-XL expressed in Escherichia coli BL21 by fluorescence polarization assay. A general note: In fluorescence polarisation assays a small probe gives low polarisation when free and higher when bound to something large.
As to `CC[C@H](C)[C@H](NC(=O)[C@H](C)NC(=O)[C@H](CC(C)C)NC(=O)[C@H](CCC(N)=O)NC(=O)[C@H](CCCN=C(N)N)NC(=O)CNC(=O)[C@@H](NC(=O)[C@H](CCC(N)=O)NC(=O)CN)C(C)C)C(=O)N[C@H](C(=O)NCC(=O)N[C@@H](CC(=O)O)C(=O)N[C@@H](CC(=O)O)C(=O)N[C@@H](Cc1ccccc1)C(=O)N[C@@H](CC(N)=O)C(=O)N[C@@H](CCCN=C(N)N)C(=O)O)[C@@H](C)CC`, the EC50 turned out to be 54 nM.

As for `CC[C@H](C)[C@H](NC(=O)[C@H](CC(=O)O)NC(=O)[C@H](CC(=O)O)NC(=O)CNC(=O)[C@H](Cc1ccc(O)cc1)N(C)C(=O)[C@@H](NC(=O)[C@H](C)NC(=O)[C@H](CC(C)C)NC(=O)[C@H](CCC(N)=O)NC(=O)[C@H](CCCNC(=N)N)NC(=O)CNC(=O)[C@@H](NC(=O)[C@H](CCC(N)=O)NC(=O)CN)C(C)C)[C@@H](C)CC)C(=O)N[C@@H](CC(N)=O)C(=O)N[C@@H](CCCNC(=N)N)C(=O)O`, the 50% effective concentration (EC50) is 3620 nM.

Take `CC[C@H](C)[C@H](NC(=O)[C@H](C)NC(=O)[C@H](Cc1ccc2ccccc2c1)NC(=O)[C@H](CCC(N)=O)NC(=O)[C@H](CCCNC(=N)N)NC(=O)CNC(=O)[C@@H](NC(=O)[C@H](CCC(N)=O)NC(=O)CN)C(C)C)C(=O)N[C@H](C(=O)NCC(=O)N[C@@H](CC(=O)O)C(=O)N[C@@H](CC(=O)O)C(=O)N[C@@H](Cc1ccc(Cl)cc1)C(=O)N[C@@H](CC(N)=O)C(=O)N[C@@H](CCCNC(=N)N)C(=O)O)[C@@H](C)CC` (H-GQVGRQ[2Nal]AIIGDD[Phe(4-Cl)]NR-OH): the concentration for a half-maximal effect (EC50) was determined as 53 nM.

As for `CC[C@H](C)[C@H](NC(=O)[C@H](C)NC(=O)[C@H](CC(C)C)NC(=O)[C@H](CCC(N)=O)NC(=O)[C@H](CCCN=C(N)N)NC(=O)CNC(=O)[C@@H](NC(=O)[C@H](CCC(N)=O)NC(=O)CN)C(C)C)C(=O)N[C@@H](Cc1cccc(Cl)c1)C(=O)NCC(=O)N[C@@H](CC(=O)O)C(=O)N[C@@H](CC(=O)O)C(=O)N[C@H](C(=O)N[C@@H](CC(N)=O)C(=O)N[C@@H](CCCN=C(N)N)C(=O)O)[C@@H](C)CC`, the EC50 was determined as 200 nM.

Consider `CCCC[C@H](NC(=O)[C@@H](NC(=O)[C@H](C)NC(=O)[C@H](CC(C)C)NC(=O)[C@H](CCC(N)=O)NC(=O)[C@H](CCCN=C(N)N)NC(=O)CNC(=O)[C@@H](NC(=O)[C@H](CCC(N)=O)NC(=O)CN)C(C)C)[C@@H](C)CC)C(=O)NCC(=O)N[C@@H](CC(=O)O)C(=O)N[C@@H](CC(=O)O)C(=O)N[C@H](C(=O)N[C@@H](CC(N)=O)C(=O)N[C@@H](CCCN=C(N)N)C(=O)O)[C@@H](C)CC`, for which the EC50 stood at 655 nM.

On to `CC[C@H](C)[C@H](NC(=O)[C@H](C)NC(=O)[C@H](CC(C)C)NC(=O)[C@H](CCC(N)=O)NC(=O)[C@H](CCCNC(=N)N)NC(=O)CNC(=O)[C@@H](NC(=O)[C@H](CCC(N)=O)NC(=O)CN)C(C)C)C(=O)N[C@@H](C)C(=O)NCC(=O)N[C@@H](CC(=O)O)C(=O)N[C@@H](CC(=O)O)C(=O)N[C@H](C(=O)N[C@@H](CC(N)=O)C(=O)N[C@@H](CCCNC(=N)N)C(=O)O)[C@@H](C)CC`, for which the EC50 came out at 17000 nM.

Turning to `CC[C@H](C)[C@H](NC(=O)[C@H](C)NC(=O)[C@H](CC(C)C)NC(=O)[C@H](CCC(N)=O)NC(=O)[C@H](CCCNC(=N)N)NC(=O)CNC(=O)[C@@H](NC(=O)[C@H](CCC(N)=O)NC(=O)CN)C(C)C)C(=O)N[C@@H](Cc1ccccc1)C(=O)NCC(=O)N[C@@H](CC(=O)O)C(=O)N[C@@H](CC(=O)O)C(=O)N[C@H](C(=O)N[C@@H](CC(N)=O)C(=O)N[C@@H](CCCNC(=N)N)C(=O)O)[C@@H](C)CC`, the concentration for a half-maximal effect (EC50) is 2140 nM.

Turning to `CC[C@H](C)[C@H](NC(=O)[C@H](C)NC(=O)[C@H](Cc1cccnc1)NC(=O)[C@H](CCC(N)=O)NC(=O)[C@H](CCCN=C(N)N)NC(=O)CNC(=O)[C@@H](NC(=O)[C@H](CCC(N)=O)NC(=O)CN)C(C)C)C(=O)N[C@H](C(=O)NCC(=O)N[C@@H](CC(=O)O)C(=O)N[C@@H](CC(=O)O)C(=O)N[C@H](C(=O)N[C@@H](CC(N)=O)C(=O)N[C@@H](CCCN=C(N)N)C(=O)O)[C@@H](C)CC)[C@@H](C)CC`, the half-maximal effective concentration (EC50) stood at 9740 nM.

As for `CC[C@H](C)[C@H](NC(=O)[C@H](C)NC(=O)[C@H](CC(C)C)NC(=O)[C@H](CCC(N)=O)NC(=O)[C@H](CCCN=C(N)N)NC(=O)CNC(=O)[C@@H](NC(=O)[C@H](CCC(N)=O)NC(=O)CN)C(C)C)C(=O)N[C@H](C(=O)NCC(=O)N[C@@H](CC(=O)O)C(=O)N[C@@H](CC(=O)O)C(=O)N[C@@H](C)C(=O)N[C@@H](CC(N)=O)C(=O)N[C@@H](CCCN=C(N)N)C(=O)O)[C@@H](C)CC`, the half-maximal effective concentration (EC50) turned out to be 93000 nM.

For the molecule `CC[C@H](C)[C@H](NC(=O)[C@H](C)NC(=O)[C@H](CC(C)C)NC(=O)[C@H](CCC(N)=O)NC(=O)[C@H](CCCNC(=N)N)NC(=O)CNC(=O)[C@@H](NC(=O)[C@H](CCC(N)=O)NC(=O)CN)C(C)C)C(=O)N[C@H](C(=O)NCC(=O)N[C@@H](CC(=O)O)C(=O)N[C@@H](CC(=O)O)C(=O)N[C@@H](Cc1ccc(-c2ccccc2)cc1)C(=O)N[C@@H](CC(N)=O)C(=O)N[C@@H](CCCNC(=N)N)C(=O)O)[C@@H](C)CC`, the EC50 was 267 nM.

As for `CC[C@H](C)[C@H](NC(=O)[C@H](C)NC(=O)[C@H](CC(C)C)NC(=O)[C@H](CCC(N)=O)NC(=O)[C@H](CCCN=C(N)N)NC(=O)CNC(=O)[C@@H](NC(=O)[C@H](CCC(N)=O)NC(=O)CN)C(C)C)C(=O)N[C@@H](Cc1cccc2ccccc12)C(=O)NCC(=O)N[C@@H](CC(=O)O)C(=O)N[C@@H](CC(=O)O)C(=O)N[C@H](C(=O)N[C@@H](CC(N)=O)C(=O)N[C@@H](CCCN=C(N)N)C(=O)O)[C@@H](C)CC`, the EC50 stood at 299 nM.

Usually EC50 stands for the concentration that produces a half-maximal response.
